Measurements reported in ChEMBL document CHEMBL1135389, “7-Substituted 5-amino-2-(2-furyl)pyrazolo[4,3-e]-1,2,4-triazolo[1,5-c]pyrimidines as A2A adenosine receptor antagonists: a study on the importance of modifications at the side chain on the activity and solubility” (J Med Chem, 2002).
pKi: −log10 of the molar value.

How the values were obtained:
[1] = target: T1, Adenosine receptor A3 (Homo sapiens, UniProt P0DMS8); experiment: Displacement of specific [3H]MRE3008-F20 binding at human adenosine A3 receptor expressed in CHO cells.; format: cell-based
T1 sequence (P0DMS8 whole entry): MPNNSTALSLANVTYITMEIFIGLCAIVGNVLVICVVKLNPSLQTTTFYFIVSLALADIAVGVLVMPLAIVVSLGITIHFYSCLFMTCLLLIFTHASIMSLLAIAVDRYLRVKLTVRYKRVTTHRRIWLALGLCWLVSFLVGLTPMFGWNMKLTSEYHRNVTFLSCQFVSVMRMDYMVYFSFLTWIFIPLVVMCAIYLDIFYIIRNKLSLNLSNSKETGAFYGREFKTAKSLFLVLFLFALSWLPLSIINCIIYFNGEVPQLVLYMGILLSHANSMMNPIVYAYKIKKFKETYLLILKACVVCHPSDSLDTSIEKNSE

[2] = target: T2, Adenosine receptor A2a (Homo sapiens, UniProt P29274); experiment: biochemical
[3] = target: T3, Adenosine receptor A2b (Homo sapiens, UniProt P29275); experiment: biochemical
T3 sequence (P29275 whole entry): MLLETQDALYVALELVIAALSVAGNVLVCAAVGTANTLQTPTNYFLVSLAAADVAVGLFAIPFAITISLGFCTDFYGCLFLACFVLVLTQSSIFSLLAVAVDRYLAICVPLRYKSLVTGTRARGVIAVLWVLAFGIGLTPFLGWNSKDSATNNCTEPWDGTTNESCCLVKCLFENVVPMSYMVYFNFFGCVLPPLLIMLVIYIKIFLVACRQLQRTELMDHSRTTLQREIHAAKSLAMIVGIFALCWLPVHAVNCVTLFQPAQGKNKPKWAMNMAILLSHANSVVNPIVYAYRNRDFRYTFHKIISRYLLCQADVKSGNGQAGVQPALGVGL
Description: (§1) Displacement of specific [3H]DPCPX binding at human adenosine A2B receptor expressed in HEK293 cells.

[4] = target: T4, Adenosine receptor A1 (Homo sapiens, UniProt P30542); experiment: biochemical
T4 sequence (P30542 whole entry): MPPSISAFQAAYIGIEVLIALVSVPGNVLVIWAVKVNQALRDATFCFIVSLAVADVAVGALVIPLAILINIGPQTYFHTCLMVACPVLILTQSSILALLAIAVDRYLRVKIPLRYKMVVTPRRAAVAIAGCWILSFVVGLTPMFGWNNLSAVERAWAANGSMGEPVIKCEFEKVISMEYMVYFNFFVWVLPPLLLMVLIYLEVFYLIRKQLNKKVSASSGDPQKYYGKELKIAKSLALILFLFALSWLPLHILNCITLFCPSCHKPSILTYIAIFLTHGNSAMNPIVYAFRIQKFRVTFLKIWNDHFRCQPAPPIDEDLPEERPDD
Description: Displacement of specific [3H]DPCPX binding at human Adenosine A1 receptor expressed in CHO cells.

[5] = target: T2, Adenosine receptor A2a; experiment: Displacement of [3H]-SCH- 58261 binding at human Adenosine A2A receptor expressed in HEK293 cells; ranges from 129-152; format: cell-based
[6] = target: T4, Adenosine receptor A1; experiment: Displacement of [3H]-DPCPX from human Adenosine A1 receptor expressed in CHO cells; ranges from 107-181; format: cell-based
[7] = target: T4, Adenosine receptor A1; experiment: Displacement of [3H]DPCPX from human Adenosine A1 receptor expressed in CHO cells; ranges from 9038-9773; format: cell-based
[8] = target: T2, Adenosine receptor A2a; experiment: Displacement of [3H]-SCH- 58261 binding at human Adenosine A2A receptor expressed in HEK293 cells; ranges from 98-144; format: cell-based
[9] = target: T3, Adenosine receptor A2b; conditions: hek293
Description: as §1

[10] = target: T4, Adenosine receptor A1; experiment: Displacement of [3H]DPCPX from human Adenosine A1 receptor expressed in CHO cells; ranges from 1460-2201; format: cell-based
[11] = target: T2, Adenosine receptor A2a; experiment: Displacement of [3H]-SCH- 58261 from human Adenosine A2A receptor expressed in HEK293 cells; ranges from 4.95-6.08; format: cell-based
[12] = target: T4, Adenosine receptor A1; experiment: Displacement of [3H]-DPCPX binding at human Adenosine A1 receptor expressed in CHO cells; ranges from 9257-9817; format: cell-based
[13] = target: T2, Adenosine receptor A2a; experiment: biochemical; remark: listed apart in the source
[14] = target: T4, Adenosine receptor A1; experiment: Displacement of [3H]DPCPX binding at human Adenosine A1 receptor expressed in CHO cells; ranges from 363-514; format: cell-based
[15] = target: T2, Adenosine receptor A2a; experiment: biochemical; remark: listed apart in the source
[16] = target: T4, Adenosine receptor A1; experiment: Displacement of [3H]DPCPX from human Adenosine A1 receptor expressed in CHO cells; ranges from 324-420; format: cell-based

T2 sequence (P29274 whole entry): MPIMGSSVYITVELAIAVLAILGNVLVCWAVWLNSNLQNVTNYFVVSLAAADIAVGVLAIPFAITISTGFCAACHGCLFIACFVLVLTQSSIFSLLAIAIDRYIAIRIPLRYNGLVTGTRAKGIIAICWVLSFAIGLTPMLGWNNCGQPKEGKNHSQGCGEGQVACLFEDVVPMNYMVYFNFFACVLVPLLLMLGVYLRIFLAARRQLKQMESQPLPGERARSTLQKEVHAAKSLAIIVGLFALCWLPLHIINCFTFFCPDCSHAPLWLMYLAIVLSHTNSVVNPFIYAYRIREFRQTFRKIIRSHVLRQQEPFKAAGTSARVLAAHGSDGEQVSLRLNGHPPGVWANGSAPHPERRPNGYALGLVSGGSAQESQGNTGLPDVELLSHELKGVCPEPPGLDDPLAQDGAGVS

Structure (SMILES): Nc1nc2c(cnn2CCc2ccc(S(N)(=O)=O)cc2)c2nc(-c3ccco3)nn12
- pKi [1]: < 5.00
- pKi [2]: 8.88
- pKi [3]: < 5.00
- pKi [4]: 5.58

Structure (SMILES): Nc1nc2c(cnn2CCCc2ccc(S(=O)(=O)O)cc2)c2nc(-c3ccco3)nn12
- pKi [1]: < 5.00
- pKi [5]: 6.85
- pKi [3]: < 5.00
- pKi [6]: 6.86

Structure (SMILES): Nc1nc2c(cnn2CCc2ccc(S(=O)(=O)N(CCCl)CCCl)cc2)c2nc(-c3ccco3)nn12
- pKi [1]: < 5.00
- pKi [2]: 9.23
- pKi [3]: < 5.00
- pKi [4]: 5.28

Structure (SMILES): Nc1nc2c(cnn2CCCc2ccc(N(CCO)CCO)cc2)c2nc(-c3ccco3)nn12
- pKi [1]: < 5.00
- pKi [2]: 8.96
- pKi [3]: < 5.00
- pKi [4]: 6.25

Structure (SMILES): Nc1nc2c(cnn2CCCc2ccc3c(c2)OC(C(=O)O)(C(=O)O)O3)c2nc(-c3ccco3)nn12 [listing 1 of 2 here]
- pKi ([1]; cho): < 5.00
- pKi [7]: 5.03
- pKi [8]: 6.92
- pKi [9]: < 5.00

Structure (SMILES): CCOC(=O)[C@@H]1Oc2ccc(CCCn3ncc4c3nc(N)n3nc(-c5ccco5)nc43)cc2O1
- pKi [1]: < 5.00
- pKi [3]: < 5.00
- pKi [10]: 5.75
- pKi [11]: 8.26

Structure (SMILES): Nc1nc2c(cnn2CCCc2ccc(C(=O)O)cc2)c2nc(-c3ccco3)nn12
- pKi [1]: < 5.00
- pKi [2]: 8.36
- pKi [3]: < 5.00
- pKi [4]: 5.30

Structure (SMILES): N=C(N)c1ccc(CCCn2ncc3c2nc(N)n2nc(-c4ccco4)nc32)cc1
- pKi [1]: < 5.00
- pKi [2]: 7.26
- pKi [3]: < 5.00
- pKi [4]: 7.12

Structure (SMILES): Nc1nc2c(cnn2CCCc2ccc3c(c2)OC(C(=O)O)(C(=O)O)O3)c2nc(-c3ccco3)nn12 [listing 2 of 2 here]
- pKi [1]: < 5.00
- pKi [8]: 6.92
- pKi [3]: < 5.00
- pKi [12]: 5.02

Structure (SMILES): Nc1ccc(CCCn2ncc3c2nc(N)n2nc(-c4ccco4)nc32)cc1
- pKi [1]: < 5.00
- pKi [2]: 9.66
- pKi [3]: < 5.00
- pKi [4]: 5.67

Structure (SMILES): Nc1nc2c(cnn2CCCc2ccc3c(c2)OC(CO)(CO)O3)c2nc(-c3ccco3)nn12
- pKi [13]: 9.72
- pKi [1]: < 5.00
- pKi [14]: 6.36
- pKi [3]: < 5.00

Structure (SMILES): CN1CCN(S(=O)(=O)c2ccc(CCn3ncc4c3nc(N)n3nc(-c5ccco5)nc43)cc2)CC1
- pKi [1]: < 5.00
- pKi [3]: < 5.00
- pKi [15]: 8.42
- pKi [16]: 6.43

Structure (SMILES): CCOC(=O)c1ccc(CCCn2ncc3c2nc(N)n2nc(-c4ccco4)nc32)cc1
- pKi [1]: < 5.00
- pKi [2]: 8.40
- pKi [3]: < 5.00
- pKi [4]: 5.35

Structure (SMILES): Nc1nc2c(cnn2CCCc2ccccc2)c2nc(-c3ccco3)nn12 [SCH-63390]
- pKi [2]: 8.92
- pKi [3]: < 5.00
- pKi [4]: 6.46
